In patent US5859257A, “Isoxazole compounds as cyclooxygenase inhibitors” (G. D. Searle & Co., priority 1996, dated 1999):

Tests used:
[1] = target: COX-2; experiment: Evaluation of COX-2 activity in vitro (PGE2 ELISA, recombinant enzyme); format: biochemical, human or murine; settings: arachidonic acid 10 μM, pH 8.0, pre-incubation 10-20 minutes
Description: The COX-2 inhibition activity of the compounds of this invention illustrated in the Examples was determined by the following methods.
(§1) a. Preparation of recombinant COX baculoviruses
(§2) Recombinant COX-1 and COX-2 were prepared as scribed by Gierse et al, [J. Biochem., 305, 479-84 (1995)]. […] Recombinant baculoviruses were isolated by transfecting 4 μg of baculovirus transfer vector DNA into SF9 insect cells (2×10^8) along with 200 ng of linearized baculovirus plasmid DNA by the calcium phosphate method. See M. D. Summers and G. E. Smith, A Manual of Methods for Baculovirus Vectors and Insect Cell Culture Procedures, Texas Agric. Exp. Station Bull. 1555 (1987). Recombinant viruses were purified by three rounds of plaque purification and high titer (10^7 -10^8 pfu/mL) stocks of virus were prepared. For large scale production, SF9 insect cells were infected in 10 liter fermentors (0.5×10^6 /mL) with the recombinant baculovirus stock such that the multiplicity of infection was 0.1. After 72 hours the cells were centrifuged and the cell pellet homogenized in Tris/Sucrose (50 mM: 25%, pH 8.0) containing 1% 3-[(3-cholamidopropyl)dimethylammonio]-1-propanesulfonate (CHAPS). The nomogenate was centrifuged at 10,000×G for 30 minutes, and the resultant supernatant was stored at -80° C. before being assayed for COX activity.
(§3) COX activity was assayed as PGE2 formed/μg protein/time using an ELISA to detect the prostaglandin released. CHAPS-solubilized insect cell membranes containing the appropriate COX enzyme were incubated in a potassium phosphate buffer (50 mM, pH 8.0) containing epinephrine, phenol, and heme with the addition of arachidonic acid (10 μM). […] Any reaction between the arachidonic acid and the enzyme was stopped after ten minutes at 37° C./room temperature by transferring 40 μl of reaction mix into 160 μl ELISA buffer and 25 μM indomethacin. The PGE2 formed was measured by standard ELISA technology (Cayman Chemical).

[2] = target: COX-1; experiment: Evaluation of COX-1 activity in vitro (PGE2 ELISA, recombinant enzyme); format: biochemical, human or murine; settings: arachidonic acid 10 μM, pH 8.0, pre-incubation 10-20 minutes
Description: as §1, §2, §3

Structure (SMILES)	IC50 [1] [µM]	IC50 [2] [µM]
NS(=O)(=O)c1ccc(-c2c(-c3ccccc3)noc2CC(=O)C(F)(F)F)cc1 [Example 52, 4-[3-Phenyl-5-(3,3,3-trifluoro-2-oxopropyl)isoxazol-4-yl]benzenesulfonamide]	0.2	93
COc1ccc(-c2noc(C)c2-c2ccc(S(N)(=O)=O)cc2)cc1F [Example 4, 4-[3-(3-Fluoro-4-methoxyphenyl)-5-methylisoxazol-4-yl]benzenesulfonamide]	3	> 100
NS(=O)(=O)c1ccc(-c2c(-c3ccccc3)noc2OS(=O)(=O)C(F)(F)F)cc1 [Example 39, 4-[5-Trifluoromethansulfonoxy-3-phenylisoxazol-4-yl]benzenesulfonamide]	0.9	> 100
NS(=O)(=O)c1ccc(-c2c(CC(=O)O)noc2-c2ccccc2)cc1 [Example 26, 4-(4-Aminosulfonylphenyl)-5-phenyl-isoxazole-3-acetic acid]	69.5	> 100
NS(=O)(=O)c1ccc(-c2c(-c3ccccc3)noc2COc2ccc(C(=O)O)cc2)cc1 [Example 51, 4-[[4-[4-(Aminosulfonyl)phenyl]-3-phenylisoxazol-5-yl]methoxy]benzoic acid]	19	> 100
COc1ccc(-c2noc(C(F)F)c2-c2ccc(S(N)(=O)=O)cc2)cc1 [Example 45, 4-[5-Difluoromethyl-3-(4-methoxyphenyl)isoxazol-4-yl]benzenesulfonamide]	< 0.1	16
CS(=O)(=O)c1ccc(-c2c(-c3ccccc3)noc2CC(=O)O)cc1 [Example 8, [4-[4-(methylsulfonyl)phenyl]-3-phenylisoxazol-5-yl]acetic acid]	> 100	> 100
Cc1noc(-c2cccc(Cl)c2)c1-c1ccc(S(N)(=O)=O)cc1 [Example 24, 4-[5-(3-Chlorophenyl)-3-methylisoxazol-4-yl]benzenesulfonamide]	8.4	> 100
NS(=O)(=O)c1ccc(-c2c(-c3ccccc3)noc2C(=O)O)cc1 [Example 11, [4-[4-(Aminosulfonyl)phenyl]-3-phenylisoxazol-5-yl]carboxylic acid]	35	–
Cc1onc(-c2cc(F)cc(F)c2)c1-c1ccc(S(N)(=O)=O)cc1 [Example 42, 4-[3-(3,5-Difluorophenyl)-5-methylisoxazol-4-yl]benzenesulfonamide]	22.5	> 100
CSc1ccc(-c2noc(C)c2-c2ccncc2)cc1 [Example 40, [5-Methyl-3-(4-methylthiophenyl)isoxazol-4-yl]-4-pyridine]	91	2.3
NS(=O)(=O)c1ccc(-c2c(-c3ccccc3)noc2CCCC(=O)O)cc1 [Example 36]	1.5	> 100
NS(=O)(=O)c1ccc(-c2c(-c3ccccc3)noc2CC(=O)O)cc1 [Example 9, [4-[4-(Aminosulfonyl)phenyl]-3-phenylisoxazol-5-yl]acetic acid]	–	> 100
NS(=O)(=O)c1ccc(-c2c(-c3ccccc3)noc2COCC(=O)O)cc1 [Example 35, [[4-[4-(Aminosulfonyl)phenyl]-3-phenylisoxazol-5-yl]-methoxy]acetic acid]	5.1	> 100
Cc1noc(-c2ccccc2)c1-c1ccc(S(N)(=O)=O)cc1 [Example 13, 4-[3-Methyl-5-phenylisoxazol-4-yl]benzenesulfonamide]	–	6.4
CC(C)c1noc(-c2ccccc2)c1-c1ccc(S(N)(=O)=O)cc1 [Example 15, 4-[3-isopropyl-5-phenylisoxazol-4-yl]benzenesulfonamide]	0.1	59
COc1ccc(-c2noc(C(F)F)c2-c2ccc(S(N)(=O)=O)cc2)cc1F [Example 44, 4-[5-Difluoromethyl-3-(3-fluoro-4-methoxyphenyl)isoxazol-4-yl]benzenesulfonamide]	1.7	> 100
NS(=O)(=O)c1ccc(-c2c(-c3cccc(F)c3)noc2CC(=O)O)cc1 [Example 55, [4-(4-Aminosulfonylphenyl)-3-(3-fluorophenyl)isoxazol-5-yl]acetic acid]	< 0.1	> 100
CCc1noc(-c2ccc(C)cc2)c1-c1ccc(S(N)(=O)=O)cc1 [Example 17, 4-[3-Ethyl-5-(4-methylphenyl)isoxazol-4-yl]benzenesulfonamide]	2.1	> 100
COc1ccc(-c2noc(C)c2-c2ccc(S(C)(=O)=O)cc2)cc1Cl [Example 7, 3-(3-Chloro-4-methoxyphenyl)-5-methyl-4-[4-methylsulfonylphenyl]isoxazole]	86.7	> 100
CCc1noc(-c2ccc(F)cc2)c1-c1ccc(S(N)(=O)=O)cc1 [Example 30, 4-[3-Ethyl-5-(4-fluorophenyl)isoxazol-4-yl]benzenesulfonamide]	< 0.1	41
CCc1noc(-c2cccc(F)c2)c1-c1ccc(S(N)(=O)=O)cc1 [Example 31, 4-[3-Ethyl-5-(3-fluorophenyl)isoxazol-4-yl]benzenesulfonamide]	1.3	> 100
Cc1noc(-c2ccc(F)cc2)c1-c1ccc(S(N)(=O)=O)cc1 [Example 21, 4-[5-(4-fluorophenyl)-3-methylisoxazol-4-yl]benzenesulfonamide]	5.2	> 100
Cc1onc(-c2ccccc2)c1-c1ccc(S(C)(=O)=O)cc1 [Example 5, 5-Methyl-4-[4-(methylsulfonyl)phenyl]-3-phenylisoxazole]	4	> 100
C[S+]([O-])c1onc(-c2ccccc2)c1-c1ccc(S(N)(=O)=O)cc1 (centres unmarked) [Example 59, 4-[5-Methylsulfinyl-3-phenylisoxazol-4-yl]benzenesulfonamide]	< 0.1	> 100
Cc1ccc(-c2noc(C(F)F)c2-c2ccc(S(N)(=O)=O)cc2)cc1 [Example 46, 4-[5-Difluoromethyl-3-(4-methylphenyl)isoxazol-4-yl]benzenesulfonamide]	0.5	100
Cc1onc(-c2ccc(F)c(F)c2)c1-c1ccc(S(N)(=O)=O)cc1 [Example 49, 4-[3-(3,4-Difluorophenyl)-5-methylisoxazol-4-yl]benzenesulfonamide]	–	> 100
CCc1noc(-c2cccc(C)c2)c1-c1ccc(S(N)(=O)=O)cc1 [Example 32, 4-[3-Ethyl-5-(3-methylphenyl)isoxazol-4-yl]benzenesulfonamide]	–	76
CCc1noc(-c2ccccc2)c1-c1ccc(S(C)(=O)=O)cc1 [Example 29, 3-Ethyl-4-(4-methylsulfonylphenyl)-5-phenylisoxazole]	–	> 100

Other lines, results leading:

IC50 [1] [µM]	IC50 [2] [µM]	Structure (SMILES)
2	> 100	Cc1onc(-c2cccnc2)c1-c1ccc(S(N)(=O)=O)cc1 [Example 4e, 4-[5-methyl-3-(3-pyridyl)isoxazol-4-yl]benzenesulfonamide]
> 100	> 100	Cc1onc(-c2ccncc2)c1-c1ccc(S(N)(=O)=O)cc1 [Example 4f, 4-[5-methyl-3-(4-pyridyl)-isoxazol-4-yl]benzenesulfonamide]
–	54	NS(=O)(=O)c1ccc(-c2c(-c3ccccc3)noc2C2CCCCC2)cc1 [Example 1f, 4-[5-cyclohexyl-3-phenylisoxazol-4-yl]benzenesulfonamide]
< 0.1	25.8	CCCCc1onc(-c2ccccc2)c1-c1ccc(S(N)(=O)=O)cc1 [Example 1d, 4-[5-butyl-3-phenylisoxazol-4-yl]benzenesulfonamide]
< 0.1	> 100	Cc1onc(-c2ccc(F)cc2)c1-c1ccc(S(N)(=O)=O)cc1 [Example 4b, 4-[3-(4-fluorophenyl)-5-methyl-isoxazol-4-yl]benzenesulfonamide]
< 0.1	6.2	CC(C)c1onc(-c2ccccc2)c1-c1ccc(S(N)(=O)=O)cc1 [Example 1c, 4-[5-isopropyl-3-phenylisoxazol-4-yl]benzenesulfonamide]
< 0.1	4.7	NS(=O)(=O)c1ccc(-c2c(-c3ccccc3)noc2CC2CCCCC2)cc1 [Example 1h, 4-[5-cyclohexylmethyl-3-phenylisoxazol-4-yl]benzenesulfonamide]
< 0.1	8.6	NS(=O)(=O)c1ccc(-c2c(-c3ccccc3)noc2Cc2ccc(Cl)cc2)cc1 [Example 1i, 4-[5-(4-chlorophenyl)methyl-3-phenylisoxazol-4-yl]benzenesulfonamide]
1.5	> 100	Cc1onc(-c2ccccc2)c1-c1ccc(S(=O)(=O)O)cc1 [Example 1l, 4-[5-methyl-3-phenylisoxazol-4-yl]benzenesulfonic acid]
51	> 100	CCCc1onc(-c2ccccc2)c1-c1ccc(S(=O)(=O)O)cc1 [Example 1m, 4-[5-propyl-3-phenylisoxazol-4-yl]benzenesulfonic acid]
